According to the supplement of paper PMC4314810:
± gives the standard deviation of the averaged measurements.

tested on: MCF7; test: HRG-induced Akt activation (dPAkt = log2 pAkt/Akt HRG-stimulated minus log2 pAkt/Akt basal) (log2 ratio difference); higher = stronger HRG-induced Akt(T308) phosphorylation; settings: miRNA mimic concentration 10 nM; time after transfection 72 h; heregulin 10 ng/ml; stimulation time 1 h
How it was run: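 MCF7 cells ([…], 96-well plates) were transfected with a library of 879 miRNA mimics at 10 nM final using Lipofectamine RNAiMax, in two biological replicates. After 72 h, cells were stimulated with 10 ng/ml heregulin-beta1 for 1 h or left unstimulated. They were fixed with 4% PFA, and phospho-Akt(T308) and total Akt were read by In-Cell Western on an Odyssey. Signals were corrected for column-wise fixation decay, and HRG-induced Akt activation is log2(pAkt/Akt) stimulated minus unstimulated, averaged over replicates.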

Sequence	HRG-induced Akt activation (log2)
AGGUGGUCCGUGGCGCGUUCGC	2.93 ± 0.32
CGUGCCACCCUUUUCCCCAG	1.18 ± 0.34
AUUUGUGCUUGGCUCUGUCAC	0.917 ± 0.31
AUGACCUAUGAAUUGACAGAC	1.43 ± 0.063
AGGGAGGGACGGGGGCUGUGC	1.89 ± 0.16
AAGAUGUGGAAAAAUUGGAAUC	1.68 ± 0.17
UCUGCCCCCUCCGCUGCUGCCA	1.55 ± 0.069
UGAGCCCUGUCCUCCCGCAG	2.24 ± 0.29
UGCACCAUGGUUGUCUGAGCAUG	1.29 ± 0.33
CUAAUAGUAUCUACCACAAUAAA	1.84 ± 0.24
CUGGACUGAGCCGUGCUACUGG	1.98 ± 0.076
GUGGGCGGGGGCAGGUGUGUG	1.13 ± 0.44
CUGUAUGCCCUCACCGCUCA	2.27 ± 0.32
AGUUUUGCAGGUUUGCAUCCAGC	1.36 ± 0.22
UAGUACUGUGCAUAUCAUCUAU	1.44 ± 0.47
UAACAGUCUACAGCCAUGGUCG	1.37 ± 0.26
CAAACCACACUGUGGUGUUAGA	1.09 ± 0.76
CAAGCUCGCUUCUAUGGGUCUG	1.18 ± 0.12
CCCCAGGGCGACGCGGCGGG	2.057 ± 0.012
UGUGUCACUCGAUGACCACUGU	2.42 ± 0.089
AUGUAUAAAUGUAUACACAC	1.42 ± 0.5
UAAUACUGUCUGGUAAAACCGU	1.15 ± 0.17
UAGCAGCACAUAAUGGUUUGUG	1.98 ± 0.18
GCUGACUCCUAGUCCAGGGCUC	1.53 ± 0.099

Sequence	HRG-induced Akt activation (log2)
AGCCUGGAAGCUGGAGCCUGCAGU	1.35 ± 0.14
UUCUCCAAAAGAAAGCACUUUCUG	2.57 ± 0.12
AAGCAGCUGCCUCUGAGGC	2.16 ± 0.21
GGAGACGCGGCCCUGUUGGAGU	1.33 ± 0.052
CUUAGCAGGUUGUAUUAUCAUU	1.81 ± 0.098
ACUCCAGCCCCACAGCCUCAGC	1.84 ± 0.05
GGAUUCCUGGAAAUACUGUUCU	1.2 ± 0.74
CUGCCCUGGCCCGAGGGACCGA	1.21 ± 0.096
CAUCUUACCGGACAGUGCUGGA	1.841 ± 0.015
UUCUCCAAAAGGGAGCACUUUC	2.3 ± 0.097
AGAGUCUUGUGAUGUCUUGC	2.38 ± 0.067
ACUUGUAUGCUAGCUCAGGUAG	1.13 ± 0.012
UGUCACUCGGCUCGGCCCACUAC	1.17 ± 0.18
CACUGGCUCCUUUCUGGGUAGA	2.02 ± 0.43
CCAGUCCUGUGCCUGCCGCCU	1.88 ± 0.41
UUCAACGGGUAUUUAUUGAGCA	1.34 ± 0.24
AAACAAACAUGGUGCACUUCUU	1.48 ± 0.08
ACCACUGACCGUUGACUGUACC	1.81 ± 0.74
UGACAACUAUGGAUGAGCUCU	1.53 ± 0.29
CUAUACAAUCUAUUGCCUUCCC	1.44 ± 0.43
AAUCAUACACGGUUGACCUAUU	1.41 ± 0.42
CGGCCCGGGCUGCUGCUGUUCCU	1.09 ± 0.4
UGGCAGUGUCUUAGCUGGUUGU	1.99 ± 0.091
UCAAAACUGAGGGGCAUUUUCU	1.34 ± 0.13

Sequence	HRG-induced Akt activation (log2)
CACUCAGCCUUGAGGGCACUUUC	0.664 ± 0.32
AGUGAAUGAUGGGUUCUGACC	1.879 ± 0.002
AAUUGCACUUUAGCAAUGGUGA	1.14 ± 0.04
CAGGUCGUCUUGCAGGGCUUCU	1.44 ± 0.68
GCUGGUUUCAUAUGGUGGUUUAGA	1.82 ± 0.049
UAUACCUCAGUUUUAUCAGGUG	1.94 ± 0.15
CCUAGUAGGUGUCCAGUAAGUGU	1.04 ± 0.63
UGAGGUAGUAAGUUGUAUUGUU	1.6 ± 0.43
UUUUUCAUUAUUGCUCCUGACC	1.62 ± 0.14
UGGAUUUUUGGAUCAGGGA	2.21 ± 0.15
UAAAGAGCCCUGUGGAGACA	1.58 ± 0.083
CAAAGAGGAAGGUCCCAUUAC	2.01 ± 0.3
GUAGAUUCUCCUUCUAUGAGUA	1.35 ± 0.17
ACUGAUUUCUUUUGGUGUUCAG	1.47 ± 0.082
ACUUAAACGUGGAUGUACUUGCU	1.93 ± 0.26
UCGUUUGCCUUUUUCUGCUU	1.46 ± 0.3
CUCCCACAUGCAGGGUUUGCA	1.81 ± 0.022
AGGAAGCCCUGGAGGGGCUGGAG	1.1 ± 0.6
CACCCGGCUGUGUGCACAUGUGC	1.53 ± 0.48
UCAGUGCACUACAGAACUUUGU	0.519 ± 0.1
GGAGAAAUUAUCCUUGGUGUGU	0.932 ± 0.022
UGAUAUGUUUGAUAUUGGGUU	1.75 ± 0.041
AUCAUAGAGGAAAAUCCAUGUU	1.64 ± 1
UCUUGGAGUAGGUCAUUGGGUGG	1.56 ± 0.046
